pIC50: −log10 of the molar value. Where two headings read alike, the source gives them in different places.
Assays:
[1] = test system: collagen-induced arthritis; details: mouse collagen-induced arthritis; cited from earlier work
endotoxin-induced shock = details: murine model of endotoxin-induced shock; cited from earlier work
adjuvant arthritis = details: rat adjuvant arthritis; cited from earlier work
MK-3 = MK-3 (Homo sapiens, UniProt Q16644); test: MK-3 inhibition IC50 (similar method to MK-2, with appropriate modifications); assay type: biochemical
MAPKAPK2 (MK-2) = MAPKAPK2 (MK-2) (Homo sapiens, UniProt P49137); test: Determination of MK-2 IC50 (HSP-peptide phosphorylation, anion exchange resin capture assay); assay type: biochemical
In short: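 Radiometric peptide assay: 15 nM p38α-activated MK-2, HSP-peptide, 0.03 mM ATP with [γ33P]ATP, 2% DMSO, pH 7.5, 30° C for 30 min; unreacted ATP removed on AG 1×8 resin before counting. Six concentrations in ten-fold steps, each in triplicate, gave IC50 in μM.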

granulomas = details: laboratory rats; cited from earlier work
[2] = Table 1, phenoxypyrazole MK-2 inhibitors, read-out: MK-3 Avg. IC50
[3] = Table 1, phenoxypyrazole MK-2 inhibitors, read-out: MK-2 Avg, IC50
[4] = Table 2, pyrazolylpyrazole MK-2 inhibitors, read-out: MK-3 Avg. IC50
[5] = Table 2, pyrazolylpyrazole MK-2 inhibitors, read-out: MK-2 Avg. IC50
[6] = Table 5, other cyclic pyrazole MK-2 inhibiting compounds, read-out: MK-3 Avg. IC50
[7] = Table 5, other cyclic pyrazole MK-2 inhibiting compounds, read-out: MK-2 Avg. IC50

Sequence of MAPKAPK2 (MK-2) (P49137 whole entry, species assumed): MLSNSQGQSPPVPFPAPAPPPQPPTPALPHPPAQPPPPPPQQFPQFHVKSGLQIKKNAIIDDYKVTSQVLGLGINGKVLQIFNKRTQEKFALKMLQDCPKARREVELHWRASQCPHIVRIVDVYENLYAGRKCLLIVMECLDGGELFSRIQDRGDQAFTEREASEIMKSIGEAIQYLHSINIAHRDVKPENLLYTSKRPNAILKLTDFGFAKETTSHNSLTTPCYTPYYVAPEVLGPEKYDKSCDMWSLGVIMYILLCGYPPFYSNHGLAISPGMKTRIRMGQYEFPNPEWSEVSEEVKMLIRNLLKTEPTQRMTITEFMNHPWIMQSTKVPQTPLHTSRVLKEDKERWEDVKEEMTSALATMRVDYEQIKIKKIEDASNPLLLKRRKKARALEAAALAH
Sequence of MK-3 (Q16644 whole entry, species assumed): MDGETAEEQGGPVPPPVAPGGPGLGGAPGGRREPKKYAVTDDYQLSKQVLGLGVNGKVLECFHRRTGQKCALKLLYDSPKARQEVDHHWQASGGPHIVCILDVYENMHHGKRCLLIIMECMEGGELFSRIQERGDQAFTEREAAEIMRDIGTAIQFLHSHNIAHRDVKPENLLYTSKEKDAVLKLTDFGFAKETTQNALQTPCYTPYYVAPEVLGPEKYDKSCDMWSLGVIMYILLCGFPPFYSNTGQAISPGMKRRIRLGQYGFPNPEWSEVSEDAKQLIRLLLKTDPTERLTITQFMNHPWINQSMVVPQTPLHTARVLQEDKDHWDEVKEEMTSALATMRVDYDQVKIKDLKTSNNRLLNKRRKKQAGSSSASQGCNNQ

## C[S+]([O-])c1ccc(-c2nc(-c3ccncc3)c(-c3ccc(F)cc3)[nH]2)cc1 (stereo not drawn) [SB203580]
[1]
  development of arthritis: inhibit the development
endotoxin-induced shock
  mortality: reduce mortality
Adjuvant arthritis
  development of arthritis: inhibit the development

## CCOC(=O)c1nn(-c2ccc(S(N)(=O)=O)cc2)c2c1CCc1cc(O)ccc1-2 [Example 176]
MK-3; [2]
  pIC50: < 3.70
MAPKAPK2 (MK-2); [3]
  pIC50: < 3.70

## NCC1Cn2nc3c(c2C(=O)N1)CCc1cnccc1-3 (stereo not drawn) [Example 49]
MK-3; read-out: MK-3 Avg. IC50
  pIC50: 4.34
MAPKAPK2 (MK-2); read-out: MK-2 Avg. IC50
  pIC50: 6.37

## Cc1noc(C)c1-c1cc2c(cc1O)CCc1c-2nn(CCCN)c1C(=O)O [Example 55]
MK-3; [2]
  pIC50: 3.77
MAPKAPK2 (MK-2); [3]
  pIC50: 3.87

## CNC(=O)c1[nH]nc2c1CCc1cc(O)ccc1-2 [Example 69]
MK-3; [2]
  pIC50: < 3.70
MAPKAPK2 (MK-2); [3]
  pIC50: 3.75

## O=C1NCCCn2nc3c(c21)CCc1cnc(Nc2ccccc2)cc1-3 [Example 131]
MK-3; read-out: MK-3 Avg. IC50
  pIC50: 4.60
MAPKAPK2 (MK-2); read-out: MK-2 Avg. IC50
  pIC50: 5.33

## C=CCn1nc2c(c1C(=O)O)CCc1[nH]ncc1-2 [Example 15]
MK-3; [4]
  pIC50: 3.87
MAPKAPK2 (MK-2); [5]
  pIC50: 4.64

## Cn1nc2c(c1C(N)=O)CCc1cc(O)ccc1-2 [Example 71]
MK-3; [2]
  pIC50: < 3.70
MAPKAPK2 (MK-2); [3]
  pIC50: 3.75

## COc1ccc2c(c1)CCc1c(C(=O)O)nn(-c3ccc(S(N)(=O)=O)cc3)c1-2 [Example 166]
MK-3; [2]
  pIC50: < 3.70
MAPKAPK2 (MK-2); [3]
  pIC50: < 3.70

## O=C1NCCCn2nc3c(c21)CCc1cc(O)c(-c2cccc([N+](=O)[O-])c2)cc1-3 [Example 3]
MK-3; [2]
  pIC50: < 3.70
MAPKAPK2 (MK-2); [3]
  pIC50: 5.83

## Cn1nc(C(=O)O)c2c1-c1ccc(O)cc1CC2 [Example 39]
MK-3; [2]
  pIC50: < 3.70
MAPKAPK2 (MK-2); [3]
  pIC50: 4.25

## CNC(=O)c1nn(-c2ccc(S(N)(=O)=O)cc2)c2c1CCc1[nH]ncc1-2 [Example 52]
MK-3; [4]
  pIC50: ≤ 3.70
MAPKAPK2 (MK-2); [5]
  pIC50: ≤ 3.70

## NC(=O)c1ccc(-n2nc(C(N)=O)c3c2-c2cn[nH]c2CC3)cc1 [Example 24]
MK-3; [4]
  pIC50: ≤ 3.70
MAPKAPK2 (MK-2); [5]
  pIC50: 4.11

## N#Cc1ccc(CCCNCCCn2nc3c(c2C(=O)O)CCc2cnccc2-3)cc1 [Example 58]
MK-3; read-out: MK-3 Avg. IC50
  pIC50: 4.35
MAPKAPK2 (MK-2); read-out: MK-2 Avg. IC50
  pIC50: 6.25

## NCCCn1nc2c(c1C(=O)O)CCc1cc(O)c(-c3cccc(C(=O)O)c3)cc1-2 [Example 36]
MK-3; [2]
  pIC50: < 3.70
MAPKAPK2 (MK-2); [3]
  pIC50: 4.33

## NCCCn1nc2c(c1C(=O)O)CCc1cc(O)c(N)cc1-2 [Example 27]
MK-3; [2]
  pIC50: < 3.70
MAPKAPK2 (MK-2); [3]
  pIC50: 4.57

## COc1cccc(-c2cc3c(cn2)CCc2c-3nn(CCCN)c2C(=O)O)c1 [Example 14]
MK-3; read-out: MK-3 Avg. IC50
  pIC50: 6.06
MAPKAPK2 (MK-2); read-out: MK-2 Avg. IC50
  pIC50: 7.25

## CC(C)(C)OC(=O)NCCCn1nc2c(c1C(N)=O)CCc1[nH]ncc1-2 [Example 66]
MK-3; [4]
  pIC50: ≤ 3.70
MAPKAPK2 (MK-2); [5]
  pIC50: ≤ 3.70

## COC(=O)c1[nH]nc2c1CCc1cc(O)ccc1-2 [Example 181]
MK-3; [2]
  pIC50: < 3.70
MAPKAPK2 (MK-2); [3]
  pIC50: < 3.70

## NC(=O)c1nn(-c2ccccc2)c2c1CCc1[nH]ncc1-2 [Example 29]
MK-3; [4]
  pIC50: ≤ 3.70
MAPKAPK2 (MK-2); [5]
  pIC50: 3.95

## NCCCn1nc2c(c1C(=O)O)CCc1cc(O)c(CCC(F)(F)F)cc1-2 [Example 12]
MK-3; [2]
  pIC50: 3.83
MAPKAPK2 (MK-2); [3]
  pIC50: 5.09

## O=C1NCCCn2nc3c(c21)CCc1cnc(-c2cnc4ccccc4c2)cc1-3 [Example 30]
MK-3; read-out: MK-3 Avg. IC50
  pIC50: 4.92
MAPKAPK2 (MK-2); read-out: MK-2 Avg. IC50
  pIC50: 6.77

## O=C1NCCn2nc3c(c21)CCc1cnc(/C=C/c2cccc(Cl)c2)cc1-3 [Example 10]
MK-3; [6]
  pIC50: < 4.70
MAPKAPK2 (MK-2); [7]
  pIC50: 5.53

## COC(=O)c1c2c(nn1CCCNC(=O)OC(C)(C)C)-c1ccc(OC)cc1CC2 [Example 186]
MK-3; [2]
  pIC50: < 3.70
MAPKAPK2 (MK-2); [3]
  pIC50: < 3.70

## NC(=O)c1[nH]nc2c1CCc1c-2cnn1-c1ccccc1 [Example 51]
MK-3; [4]
  pIC50: ≤ 3.70
MAPKAPK2 (MK-2); [5]
  pIC50: ≤ 3.70

## CC(C)(C)c1ccc(-c2cc3c(cc2O)CCc2c-3nn(CCCN)c2C(=O)O)cc1 [Example 22]
MK-3; [2]
  pIC50: 3.92
MAPKAPK2 (MK-2); [3]
  pIC50: 4.73

## CCOC(=O)c1c2c(nn1CCCN)-c1cn[nH]c1CC2 [Example 33]
MK-3; [4]
  pIC50: 3.73
MAPKAPK2 (MK-2); [5]
  pIC50: 3.94

## CCOC(=O)c1[nH]nc2c1CCc1c-2cnn1CCO [Example 69]
MK-3; [4]
  pIC50: ≤ 3.70
MAPKAPK2 (MK-2); [5]
  pIC50: ≤ 3.70

## NC(=O)c1[nH]nc2c1CCc1c-2cnn1COCc1ccccc1 [Example 68]
MK-3; [4]
  pIC50: ≤ 3.70
MAPKAPK2 (MK-2); [5]
  pIC50: ≤ 3.70

## Nc1nccc(-c2c(-c3ccc(F)cc3)ncn2C2CCNCC2)n1 [SB 220025]
granulomas
  vascular density of granulomas: significant dose-dependent decrease

## Cn1ncc2c1CCc1c-2n[nH]c1C(N)=O [Example 49]
MK-3; [4]
  pIC50: ≤ 3.70
MAPKAPK2 (MK-2); [5]
  pIC50: ≤ 3.70

## COc1ccc(/C=C/c2cc3c(cn2)CCc2c-3nn3c2C(=O)NCC3)cc1 [Example 12]
MK-3; [6]
  pIC50: < 3.70
MAPKAPK2 (MK-2); [7]
  pIC50: 5.32

## NCCCn1nc2c(c1C(=O)O)CCc1cc(O)c(-c3cccc([N+](=O)[O-])c3)cc1-2 [Example 1]
MK-3; [2]
  pIC50: 3.94
MAPKAPK2 (MK-2); [3]
  pIC50: 6.08

## NCCCn1nc2c(c1C(=O)O)CCc1cc(O)c(-c3cccc(C(F)(F)F)c3)cc1-2 [Example 11]
MK-3; [2]
  pIC50: 4.14
MAPKAPK2 (MK-2); [3]
  pIC50: 5.12

## C=CCn1nc2c(c1C(=O)OCC)CCc1c-2cnn1C(c1ccccc1)(c1ccccc1)c1ccccc1 [Example 74]
MK-3; [4]
  pIC50: ≤ 3.70
MAPKAPK2 (MK-2); [5]
  pIC50: ≤ 3.70

## O=C1NCCn2nc3c(c21)CCc1cnc(N2CCC(O)CC2)cc1-3 [Example 159]
MK-3; read-out: MK-3 Avg. IC50
  pIC50: 4.64
MAPKAPK2 (MK-2); read-out: MK-2 Avg. IC50
  pIC50: 5.01

## CCOC(=O)c1nn(CC(F)(F)F)c2c1CCc1c-2cnn1C(c1ccccc1)(c1ccccc1)c1ccccc1 [Example 73]
MK-3; [4]
  pIC50: ≤ 3.70
MAPKAPK2 (MK-2); [5]
  pIC50: ≤ 3.70

## NCCCn1nc2c(c1C(=O)O)CCc1cnc(-c3cc(F)cc(F)c3)cc1-2 [Example 6]
MK-3; read-out: MK-3 Avg. IC50
  pIC50: 6.87
MAPKAPK2 (MK-2); read-out: MK-2 Avg. IC50
  pIC50: 7.55

## Cn1nc(C(N)=O)c2c1-c1ccc(O)cc1CC2 [Example 65]
MK-3; [2]
  pIC50: < 3.70
MAPKAPK2 (MK-2); [3]
  pIC50: 3.80

## C=CCn1nc2c(c1C(N)=O)CCc1[nH]ncc1-2 [Example 43]
MK-3; [4]
  pIC50: ≤ 3.70
MAPKAPK2 (MK-2); [5]
  pIC50: 3.74

## O=C(O)c1c2c(nn1C1CCNCC1)-c1cn[nH]c1CC2 [Example 21]
MK-3; [4]
  pIC50: ≤ 3.70
MAPKAPK2 (MK-2); [5]
  pIC50: 4.22

## CC(C)(C)c1ccc(-c2ccc(CCNCCCn3nc4c(c3C(=O)O)CCc3cnccc3-4)cc2)cc1 [Example 33]
MK-3; read-out: MK-3 Avg. IC50
  pIC50: 5.14
MAPKAPK2 (MK-2); read-out: MK-2 Avg. IC50
  pIC50: 6.70

## O=C(O)c1c2c(nn1CCCNCCc1ccc(Cl)c(Cl)c1)-c1ccncc1CC2 [Example 34]
MK-3; read-out: MK-3 Avg. IC50
  pIC50: 4.99
MAPKAPK2 (MK-2); read-out: MK-2 Avg. IC50
  pIC50: 6.70

## O=C1NCCCn2nc3c(c21)CCc1cnc(-c2cccnc2)nc1-3 [Example 5]
MK-3; Table 4, pyrimidylpyrazole MK-2 inhibitors, read-out: NK-3 Avg. IC50
  pIC50: 3.77
MAPKAPK2 (MK-2); Table 4, pyrimidylpyrazole MK-2 inhibitors, read-out: MK-2 Avg. IC50
  pIC50: 5.80

## CC(C)(C)c1ccc(CCCNCCCn2nc3c(c2C(=O)O)CCc2cnccc2-3)cc1 [Example 39]
MK-3; read-out: MK-3 Avg. IC50
  pIC50: 4.94
MAPKAPK2 (MK-2); read-out: MK-2 Avg. IC50
  pIC50: 6.63

## O=C(O)c1c2c(nn1CCCNCCc1ccc(-c3cccnc3)cc1)-c1ccncc1CC2 [Example 55]
MK-3; read-out: MK-3 Avg. IC50
  pIC50: 4.95
MAPKAPK2 (MK-2); read-out: MK-2 Avg. IC50
  pIC50: 6.28

## COC(=O)c1nn(-c2ccc(OC)cc2)c2c1CCc1cc(OC)ccc1-2 [Example 163]
MK-3; [2]
  pIC50: < 3.70
MAPKAPK2 (MK-2); [3]
  pIC50: < 3.70

## Nc1ccc(NCCCn2nc3c(c2C(=O)O)CCc2cnccc2-3)cc1 [Example 158]
MK-3; read-out: MK-3 Avg. IC50
  pIC50: 3.88
MAPKAPK2 (MK-2); read-out: MK-2 Avg. IC50
  pIC50: 5.01

— patent US20040127492A1 (Pharmacia Corporation, priority 2002, published 2004)
